Patent US20160271209A1, “ANTIBACTERIAL COMPOSITION” (ECO FRIENDLY INSTITUTE LIMITED., priority 2012, published 2016)

Legend:
[1] = system: Porphyromonas gingivalis ATCC 33277 strain; assay: Antibacterial activity against Porphyromonas gingivalis (1): 1 minute contact, colony count; format: cell-based
Procedure: The Porphyromonas gingivalis ATCC 33277 strain, a causative bacterium of periodontal disease, was cultured to the logarithmic phase in Enriched Tryptic Soy Broth (e-TSB). The culture medium was diluted with a citrate buffer (pH 4.5) containing 0.8% NaCl to adjust the number of bacteria (10^6 CFU/mL). Test solutions were prepared by dilution with sterilized purified water so as to contain the 5-fold concentrate of Prunus mume extract (3 mg/mL, 15 mg/mL as the extract before concentration), nisin (150 μg/mL), or nisin (150 μg/mL)+5-fold concentrate of Prunus mume extract (3 mg/mL, 15 mg/mL as the extract before concentration). The diluted culture medium (100 μL) was added to each test solution (5 mL). After contact of the bacterium with the test solution for 1 minute at room temperature, the mixture (100 μL) was added to and mixed with the e-TSB medium (5 mL), and the mixture (100 μL) was immediately plated on a blood agar medium under an anaerobic condition. The bacterium was cultured for 5 days under an anaerobic condition, and then the number of the colonies formed on the plate was counted. The results were as shown in Table 1 mentioned below and FIG. 1. In Table 1, “CFU” means colony-forming unit (the same shall apply to the following descriptions).

[2] = system: Porphyromonas gingivalis W83 strain; assay: Antibacterial activity against Porphyromonas gingivalis (2): growth inhibition effect by turbidity at 600 nm; format: cell-based; conditions: FIG. 2, 48 hours culture
Procedure: The Porphyromonas gingivalis W83 strain, a causative bacterium of periodontal disease, was cultured to the logarithmic phase in the brain heart infusion medium containing hemin (5 mg/L) and metidione (1 mg/L). The culture medium was diluted with a citrate buffer containing 0.8% NaCl to adjust the number of bacteria (10^6 CFU/mL). Test solutions were prepared by dilution with sterilized purified water so as to contain the 5-fold concentrate of Prunus mume extract (10 mg/mL, 50 mg/mL as the extract before concentration), nisin (20 μg/mL), or the 5-fold concentrate of Prunus mume extract (10 mg/mL, 50 mg/mL as the extract before concentration)+nisin ([…]), and serially diluted 2-fold on a 96-well plate. To each well (containing 50 μL of test solution), the brain heart infusion medium (140 μL) containing hemin (5 mg/L) and metidione (1 mg/L) and the cell suspension (10 μL) were added. After culture for 48 hours, turbidity of the culture was measured at 600 nm. For evaluation, growth inhibition effect (%) was calculated according to the equation: Growth inhibition effect (%)=(1−(Turbidity observed with test solution)/(Turbidity observed with sterilized water))×100.

[3] = system: Escherichia coli NBRC 3301 strain; assay: Antibacterial activity against Escherichia coli (1): contact for days, colony count; format: cell-based; conditions: Table 2, nisin 10 μg/mL
Procedure: The Escherichia coli NBRC 3301 strain, which is a Gram-negative bacterium, was cultured to the logarithmic phase in Tryptic Soy Broth (TSB). The culture medium was diluted with sterilized purified water to adjust the number of bacteria (10^3 to 10^4 CFU/mL). Test solutions were prepared by dilution with sterilized purified water so as to contain nisin (10 μg/mL), the 5-fold concentrate of Prunus mume extract (3 mg/mL, 15 mg/mL as the extract before concentration), or nisin (10 μg/mL)+5-fold concentrate of Prunus mume extract (3 mg/mL, 15 mg/mL as the extract before concentration). The diluted culture medium (10 μL) was added to each test solution (1 mL). After contact of the bacterium with the test solution at room temperature for a predetermined number of days (0 to 7 days), the mixture (100 μL) was plated on TBS agar medium. The bacterium was cultured for 48 hours, and then the number of the colonies formed on the plate was counted. The results are shown in Tables 2 and 3 mentioned below and FIGS. 3 and 4. In Tables 2 and 3, “D+n” means the number of days (n days) for the contact of the diluted culture medium and the test solution (the same shall apply to the following descriptions).

[4] = system: Gram-positive bacteria including acetic acid bacteria; conditions: background statement; cited from earlier work

Question: For nisin A, which “antibacterial activity against Porphyromonas gingivalis (in words)” value ([1]; Example 1, Table 1 and FIG. 1) is on record?
Answer: did not show any antibacterial activity at all

Question: What about the “Number of bacteria, After contact” value ([1]; after contact for 1 minute at room temperature, nisin 150 μg/mL, Prunus mume extract 3 mg/mL (5-fold concentrate)) of the same substance?
Answer: 1.0 × 10^6 CFU/mL

Question: And the “Number of bacteria, Before contact” value ([1]; before contact, nisin 150 μg/mL, Prunus mume extract 3 mg/mL (5-fold concentrate))?
Answer: 1.0 × 10^6 CFU/mL

Question: And the “growth inhibition effect (in words)” value ([2]; 2-fold serial dilution, overall)?
Answer: extremely low

Question: What about the “growth inhibition effect (in words)” value ([2]; at the 1/32 concentration (32-fold dilution)) of the same substance?
Answer: did not show any growth inhibition effect at all

Question: And the “Number of bacteria, D + 0” value ([3]; 0 days contact)?
Answer: 4,540 CFU/mL

Question: And the “Number of bacteria, D + 1” value ([3]; 1 day contact)?
Answer: 1,740 CFU/mL

Question: What about the “Number of bacteria, D + 3” value ([3]; 3 days contact) of the same substance?
Answer: 1,430 CFU/mL

Question: And the “Number of bacteria, D + 7” value ([3]; 7 days contact)?
Answer: 290 CFU/mL

Question: And the “concentration showing growth-suppressing effect” value [4]?
Answer: about 1 ppb
